Assays:
[1] = system: Escherichia coli; assay: In vitro antibacterial activity, dilution in Mueller Hinton Agar (Table I); assay type: cell-based
Description: (§1) All the tests were carried out and (when necessary) scored under standard conditions. "MIC" means "minimum inhibitory concentration."
(§2) In vitro Antibacterial Activity of 2-aminoalkyl-3-phenyl-
(§3) indoles of the formula I. Dilution in Mueller Hinton Agar pH 7.4

[2] = system: Proteus mirabilis; assay: as above; assay type: cell-based; conditions: Mueller Hinton Agar pH 7.4
Description: as §1, §2, §3

[3] = system: Streptococcus pyogenes; assay: as above; assay type: cell-based
Description: as §1, §2, §3

[4] = system: Bacteroides corrodens; assay: In vitro activity against anaerobes in fluid Thioglycollate medium (Table II); assay type: cell-based; conditions: Eikenella corrodens
Description: as §1
(§4) In vitro activity of 2-aminoalkyl-3-phenylindoles of the formula I
(§5) against anaerobes in fluid Thioglycollate medium

[5] = system: Bacteroides fragilis; assay: as above; assay type: cell-based
Description: as §1, §4, §5

[6] = system: Bacteroides melaninogenicus; assay: as above; assay type: cell-based
Description: as §1, §4, §5

[7] = system: Clostridium histolyticum; assay: as above; assay type: cell-based; conditions: Hathewaya histolytica
Description: as §1, §4, §5

[8] = system: Clostridium novyi; assay: as above; assay type: cell-based
Description: as §1, §4, §5

[9] = system: Clostridium septicum; assay: as above; assay type: cell-based
Description: as §1, §4, §5

[10] = system: Eubacterium lentum; assay: as above; assay type: cell-based; conditions: Eggerthella lenta
Description: as §1, §4, §5

[11] = system: Peptostreptococcus; assay: as above; assay type: cell-based
Description: as §1, §4, §5

[12] = system: Candida albicans; assay: In vitro Anti-Candida activity, dilutions in Sabouraud's Dextrose Agar (Table III); assay type: cell-based; conditions: 48 h
Description: as §1
In vitro Anti-Candida Activity of 2-aminoalkyl-3-phenyl-
indoles of the formula I. Dilutions in Sabouraud's Dextrose
MIC (mcg/ml) after 48 hours

[13] = system: Aspergillus niger 6275; assay: In vitro antifungal activity, dilutions in Sabouraud's Dextrose Broth (Table IV); assay type: cell-based; conditions: after 96 hours
Description: as §1
(§6) In vitro Antifungal Activity of 2-amioalkyl-3-phenylindoles
(§7) of the formula I against Dermetophytes and Aspergillus.
(§8) Dilutions in Sabouraud's Dextrose Broth.

[14] = system: Aspergillus sp. No. 3; assay: as above; assay type: cell-based; conditions: after 96 hours
Description: as §1, §6, §7, §8

[15] = system: Epidermophyton floccosum; assay: as above; assay type: cell-based; conditions: after 96 hours
Description: as §1, §6, §7, §8

[16] = system: Microsporum distortum; assay: as above; assay type: cell-based; conditions: after 96 hours
Description: as §1, §6, §7, §8

[17] = system: Microsporum nanum; assay: as above; assay type: cell-based; conditions: Nannizzia nana; after 96 hours
Description: as §1, §6, §7, §8

[18] = system: Trichophyton ascoides; assay: as above; assay type: cell-based; conditions: after 96 hours
Description: as §1, §6, §7, §8

[19] = system: Trichophyton discoides; assay: as above; assay type: cell-based; conditions: after 96 hours
Description: as §1, §6, §7, §8

[20] = system: Trichophyton ferrugineum; assay: as above; assay type: cell-based; conditions: Microsporum ferrugineum; after 96 hours
Description: as §1, §6, §7, §8

[21] = system: Trichophyton gallinae; assay: as above; assay type: cell-based; conditions: after 96 hours
Description: as §1, §6, §7, §8

[22] = system: Trichophyton megninii; assay: as above; assay type: cell-based; conditions: Trichophyton rubrum; after 96 hours
Description: as §1, §6, §7, §8

[23] = system: Trichophyton mentagrophytes; assay: as above; assay type: cell-based; conditions: 96 h
Description: as §1, §6, §7, §8

[24] = system: Trichophyton rubrum; assay: as above; assay type: cell-based; conditions: 96 h
Description: as §1, §6, §7, §8

[25] = system: Trichophyton schoenleinii; assay: as above; assay type: cell-based; conditions: 96 h
Description: as §1, §6, §7, §8

[26] = system: Trichophyton soudenense; assay: as above; assay type: cell-based; conditions: after 96 hours
Description: as §1, §6, §7, §8

[27] = system: Trichophyton tonsurans; assay: as above; assay type: cell-based; conditions: after 96 hours
Description: as §1, §6, §7, §8

[28] = system: Tricoderm sp.; assay: as above; assay type: cell-based; conditions: after 96 hours
Description: as §1, §6, §7, §8

[29] = Acute toxicity in mice (Table V); conditions: mouse, in vivo
Description: as §1
Acute Toxicity of 2-aminoalkyl-3-phenylindoles of the formula I

[30] = system: Trychomonas vaginalis; assay: In vitro Anti-Trichomonal activity (Table VII); assay type: cell-based
Description: as §1
In vitro Anti-Trichomonal Activity of some 2-aminoalkyl-3-
phenyl-indenes of formula II.

NCc1[nH]c2ccc(Cl)cc2c1-c1ccccc1 [C, 2-(1-aminomethyl)-5-chloro-3-phenylindole]
37.5 µg/mL: MIC ([12]; strain 4, after 48 hours) | MIC ([12]; strain 29, after 48 hours) | MIC ([12]; strain Kennedy 1, after 48 hours) | MIC ([12]; strain Newcomb, after 48 hours) | MIC [21] | MIC ([24]; strain Blehl, after 96 hours)
> 1000 mg/kg: LD50 ([29]; Oral)
17.5 µg/mL: MIC [13] | MIC [14] | MIC [15] | MIC [19] | MIC [20] | MIC ([23]; strain H377, after 96 hours) | MIC ([24]; strain 3, after 96 hours) | MIC ([25]; strain not given, after 96 hours) | MIC [26]
75 µg/mL: MIC ([12]; strain 1, after 48 hours) | MIC ([12]; strain 2, after 48 hours) | MIC ([12]; strain 3, after 48 hours) | MIC ([12]; strain 5, after 48 hours) | MIC ([12]; strain 6, after 48 hours) | MIC ([12]; strain 8, after 48 hours) | MIC ([12]; strain 9, after 48 hours) | MIC ([12]; strain Atkisson, after 48 hours) | MIC ([12]; strain Bertrand, after 48 hours) | MIC ([12]; strain Bevan, after 48 hours) | MIC ([12]; strain Blunden, after 48 hours) | MIC ([12]; strain Bognay, after 48 hours) | MIC ([12]; strain Boyer, after 48 hours) | MIC ([12]; strain Burke, after 48 hours) | MIC ([12]; strain Burnside, after 48 hours) | MIC ([12]; strain Collins, after 48 hours) | MIC ([12]; strain Fix, after 48 hours) | MIC ([12]; strain Frazier, after 48 hours) | MIC ([12]; strain Fulcher, after 48 hours) | MIC ([12]; strain Gay, after 48 hours) | MIC ([12]; strain Hons, after 48 hours) | MIC ([12]; strain Johnson, after 48 hours) | MIC ([12]; strain Kenndy 2, after 48 hours) | MIC ([12]; strain Lehtman, after 48 hours) | MIC ([12]; strain Lusk, after 48 hours) | MIC ([12]; strain Merkel, after 48 hours) | MIC ([12]; strain Sherod, after 48 hours) | MIC ([12]; strain Shurelli, after 48 hours) | MIC ([12]; strain Sparks, after 48 hours) | MIC ([12]; strain Tyner, after 48 hours)
600 mg/kg: LD50 ([29]; sc, S.C.)
38 µg/mL: IC90 ([30]; 90% suppression, read-out: Minimal Level to Produce 90% Suppression)
3 µg/mL: MIC ([1]; pH 7.4, strain 777, Mueller Hinton Agar pH 7.4) | MIC ([1]; pH 7.4, strain 1574-1, Mueller Hinton Agar pH 7.4) | MIC ([1]; pH 7.4, strain 4195, Mueller Hinton Agar pH 7.4) | MIC ([1]; pH 7.4, strain JR66, Mueller Hinton Agar pH 7.4) | MIC ([3]; pH 7.4, strain Cruz, Mueller Hinton Agar pH 7.4) | MIC ([4]; 48 hrs) | MIC ([4]; 72 hrs) | MIC ([5]; 48 hrs) | MIC ([5]; 72 hrs) | MIC ([7]; 48 hrs) | MIC ([7]; 72 hrs) | MIC ([8]; 48 hrs) | MIC ([8]; 72 hrs) | MIC ([9]; 48 hrs) | MIC ([9]; 72 hrs) | MIC ([11]; 48 hrs) | MIC ([11]; 72 hrs) | MIC [17] | MIC ([23]; strain C, after 96 hours) | MIC ([25]; strain 2, after 96 hours)
100 mg/kg: LD50 ([29]; ip, I.P.)
7.5 µg/mL: MIC ([1]; pH 7.4, strain 10536, Mueller Hinton Agar pH 7.4) | MIC ([2]; pH 7.4, strain Hard) | MIC ([2]; pH 7.4, strain Peras) | MIC ([3]; pH 7.4, strain 27, Mueller Hinton Agar pH 7.4) | MIC ([3]; pH 7.4, strain C, Mueller Hinton Agar pH 7.4) | MIC ([6]; 48 hrs) | MIC ([6]; 72 hrs) | MIC ([10]; 48 hrs) | MIC ([10]; 72 hrs) | MIC [16] | MIC [18] | MIC [22] | MIC ([23]; strain A, after 96 hours) | MIC ([23]; strain B, after 96 hours) | MIC ([23]; strain Young, after 96 hours) | MIC ([24]; strain 360, after 96 hours) | MIC ([24]; strain Haggerty, after 96 hours) | MIC [27] | MIC [28]
30 µg/mL: IC50 ([30]; 50% suppression, read-out: Minimal Level to Produce 50% Suppression)

From patent publication US4122034A, “Antimicrobial compositions” (Schering Corporation, priority 1975, dated 1978)
